In one test the test system is DU145 cells. Briefly: Prostate cancer cell morphology, growth and death. In kind it is cell-based. Particulars: for outcome of treatment of DU145 cells: after six days; for effect on DU145 cells (health, proliferation): after three days. As for the experimental part: Prostate cancer cell lines DU145 and PC3 (in 10% BCS) will be cultured in Ham's F12 (Gibco, Carlsbad, Calif.) medium containing 10% BCS (Hyclone, Logan, Utah) and appropriate antibiotics (pen/strep, fungizaone, and gentamycin (Invitrogen Inc., Carlsbad, Calif.). All cells will be cultured at 37° C. in a fully humidified atmosphere containing 5% CO2.
At 50% confluence, the cells will be treated with either 100 μM DMSO, AGX51, AGX-A, or a compound of the present technology. The cell morphology and growth will be monitored daily for 1 week by microscopy for changes in morphology or cell death. Apoptosis will be determined by measuring caspase 3 and caspase 7 activities using the Caspase-Glo 3/7 Assay system from Promega (Madison, Wis.).

For test [1], the system named is CD31-positive microvessels in Matrigel plugs. Kind of test: Anti-angiogenic activity in VEGF-165 and FGF-2 treated Matrigel plugs. The class given is in vivo, mouse. Particulars: for protection from new blood vessel formation: compared to vehicle control animals; for presence of endothelial cells in Matrigel plugs: mouse, in vivo. As for the experimental part:
VEGF-165 and FGF-2 treated Matrigel plugs will be implanted on Day 0 into C57BL/6 mice. Mice will be treated with either vehicle, AGX51, AGX-A, or a compound of the present technology. The AGX51, AGX-A, and compound of the present technology will be provided either in the plugs (25 μg/mg) or by daily ip treatment (30 or 100 mg/kg) for 10 days. Plugs will be harvested on Day 10, fixed and paraffin embedded. Three sections ([…] thickness) of each plug will be stained with an anti-CD31 antibody and counterstained with hematoxylin and eosin stain. CD31-positive microvessels will be counted for one entire cross-section per plug and the average micro-vessel density±SD vessels will be determined. Student's t-test will be used for statistical analysis.

The subject of the next test is LLC cancer cells. Kind of test: Metastatic activity in LLC mouse model. In kind it is in vivo. As to conditions: daily ip. As for the experimental part:
Thirty C57BL/6 mice will be implanted with 7.5×10^5 LLC cancer cells/animal. Seven days after implantation, 5M/5F per group will be treated daily ip for 25 days with dosing vehicle (DMSO), AGX51, AGX-A, or a compound of the present technology. Fourteen days after implantation, another group of 5M/5F animals will be treated daily ip for 18 days with 50 mg/kg of AGX51, another group of 5M/5F animals will be treated daily ip for 18 days with 50 mg/kg of AGX-A, and another group of 5M/5F animals will be treated daily ip for 18 days with a compound of the present technology. Tumors will be measured three times from Day 7 to 14. On Day 14, the tumors will be excised. The animals will be necropsied for the presence of lung metastases on day 32, 18 days post excision.

A further test concerns the target T1, ID1 (Homo sapiens, UniProt P41134).
T1 construct: endogenous in cells
T1 sequence (P41134 1-155): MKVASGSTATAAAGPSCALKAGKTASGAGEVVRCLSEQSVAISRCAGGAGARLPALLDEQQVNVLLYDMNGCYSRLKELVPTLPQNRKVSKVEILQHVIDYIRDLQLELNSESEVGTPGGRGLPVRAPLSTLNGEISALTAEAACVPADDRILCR
Kind of test: Activity against ID1 in cells (Western Blot). In kind it is cell-based. (In western blotting, separated proteins are transferred to a membrane and probed.)

The test system of a further test is cells. Briefly: Cell killing / cell viability assay. In kind it is cell-based. The procedure: Cell viability assays. Cell lines will be seeded in a 96 well plate (5000 cells per well). After overnight incubation, cells will be treated with a compound of the present technology and incubated for 24 hours then MTT reagent (5 mg/mL) will be added per well and the cells will be incubated for four hours. Following incubation, media will be aspirated and 200 μL DMSO will be added per well. Absorbance will then be measured at 570 nm using a plate reader (Synergy 2, BioTek). Cell growth profiles will be determined by seeding 38,000 cells in a 24-well plate, in triplicate for each time point, and counting the cells on days 1, 3 and 5 after seeding, using trypan blue exclusion of dead cells.

Test [2] deals with cholangiocarcinoma PDX RomeP_PHCH_X_0008a. Kind of test: Murine patient-derived xenograft model of cholangiocarcinoma, tumor volume. In kind it is in vivo, mouse. Particulars: NSG mice, 50 or 100 mg/kg p.o. BIDx5 x 4 weeks. From the text:
An animal model of cholangiocarcinoma predictive of anti-cholangiocarcinoma drug efficacy in humans, as described in Mattar, M. et al. Establishing and Maintaining an Extensive Library of Patient-Derived Xenograft Models. Front Oncol. 2018 Feb.
• Mice: NSG females, 6-8 weeks old • PDX: RomeP_PHCH_X_0008a, serially transplanted sc with matrigel • Treatment Groups (at least 5 animals/group): treatments started when tumors reached 100 mm^3 (“Day 0” for each animal), dosed via oral gavage • Group 1. Saline with 10% by weight 2-hydroxypropyl-β-cyclodextrin (“Vehicle”), p.o. twice daily for 5 days per week (“BIDx5”) for 4 weeks (“×4 weeks”) • Group 2. AGX-A 50 mg/kg in Vehicle, p.o. BIDx5×4 weeks • Group 3. AGX-A 100 mg/kg in Vehicle, p.o. BIDx5×4 weeks • Group 4. AGX-502 50 mg/kg in Vehicle, p.o. BIDx5×4 weeks • Group 5. AGX-502 100 mg/kg in Vehicle, p.o. BIDx5×4 weeks.
Tumor volumes, weights, and clinical signs were monitored a minimum of twice per week for each animal in each group throughout the study. Mice were sacrificed by CO2 asphyxiation once the tumor volume exceeded 2000 mm^3 or body weight loss was higher than 10%. Upon completion of the experiment, tumors were harvested and processed for immunoblotting and/or immunohistochemistry assays.
Background: Xenograft models place foreign cells or tissue in a host animal.

With `CCC(=O)N(CCC(c1ccc2c(c1)OCO2)c1ccccc1OC)Cc1ccccc1` (racemic) [AGX51, N-(3-(benzo[d][1,3]dioxol-5-yl)-3-(2-methoxyphenyl)propyl)-N-benzylpropionamide], in the test with DU145 cells, the “outcome of treatment of DU145 cells” value is on record as “cell death” and the “effect on DU145 cells (health, proliferation)” value is listed as “pronounced effect”. In addition, in test [1], the “protection from new blood vessel formation” value is “significant protection” and the “presence of endothelial cells in Matrigel plugs” value was “significantly decrease”. For the same compound, in the test on LLC cancer cells, the lung metastases result was “profoundly diminish”.
Regarding `COc1ccccc1C(CCNC(C)c1ccccc1)c1ccc(OC(C)C)cc1` (centres unmarked) [AGX-502], at ID1, the “activity against ID1 in cells” value is given as “significant activity” and the “activity by Western Blot” value is “very active”. Further, in the test with cells, the “activity by cell killing” value was “very active” and the “time to complete cell killing” value was at most 8 h. For the same compound, in the test on cells (24 h, initial testing), the “IC50 (24 h)” value is “significantly favorable”. Also, the “anti-cancer efficacy (tumor volume)” value in test [2] is recorded as “dose-dependent anti-cancer efficacy”.
As for `COc1ccccc1C(CCNCc1ccccc1)c1ccc(OC(C)C)cc1` (centres unmarked) [AGX-A, N-benzyl-3-(4-isopropoxyphenyl)-3-(2-methoxyphenyl)propan-1-amine], in the test with cells, the “time to complete cell killing” value is at most 24 h. Moreover, in the test on DU145 cells, the “outcome of treatment of DU145 cells” value is given as “cell death” and the “effect on DU145 cells (health, proliferation)” value is given as “pronounced effect”. In addition, in test [1], the “protection from new blood vessel formation” value is “significant protection” and the “presence of endothelial cells in Matrigel plugs” value is “significantly decrease”. Moreover, the lung metastases result in the test with LLC cancer cells is listed as “profoundly diminish”.

These data come from patent US20250230124A1, “SMALL MOLECULE INHIBITORS OF ID PROTEINS” (MEMORIAL SLOAN-KETTERING CANCER CENTER, priority 2022, published 2025).
